In US20120322813A1, “RUTAECARPINE DERIVATIVES FOR TREATING CAFFEINE TOXICITY” (priority 2011, published 2012):

Tested on: CYP1A2
Experiment: MEROD assay in live Hepa1c1c7 cells incubated with test compound (CYP1A2 induction)
Assay type: cell-based, mouse
Conditions: live Hepa1c1c7 cells incubated with 10 μM compound
Text: FIG. 1 illustrates how caffeine is primarily metabolized to paraxanthine via CYP1A2 enzyme in a human, according to some embodiments. The MEROD (methoxyresorufin-O-demethylase) assay measures the activity of the enzyme (CYP1A2) that converts methoxyresorufin (probe substrate) to resorufin (demethylation) in the presence of NADPH. The resulting resorufin concentration can be measured using a fluorescence reader by setting the excitation and emission wavelengths at 544 and 590 nm, respectively.
For MEROD assay in live cells, Hepa1c1c7 cells were cultured in either 6-well or 24-well-plates. For the 24-well plate experiment, after confluent cells were incubated for approximately 20 hours with either resorufin, nitro-resorufin, chloro-resorufin, 3-MC or DMSO (in triplicates), culture media was removed and 180 μL fresh culture media containing […] methoxyresorufin was added per well. After 1 hour incubation at 37° C., […] aliquot was taken from each well and the formation of resorufin was measured by fluorescence. […] After 5 hours incubation at 37° C., 100 μL aliquot was taken from each well, centrifuged at 12,000 g at RT for ˜5 min and the supernatants were placed into wells of a 96-well fluorescence plate and the formation of resorufin was measured by fluorescence.

For `O=c1c2ccc(Cl)cc2nc2n1CCc1c-2[nH]c2ccccc12` [chloro-rutaecarpine], the “formation of resorufin (MEROD)” value was “no marked difference”.
